Measurements reported in PubChem BioAssay AID1845197 (Molecular Pharmacology Branch, DTP, NCI, 2023).

Test system: 349418-098-R tumor spheroid viability
Assay: Anticancer human tumor 349418-098-R patient-derived lung adenocarcinoma cell line growth inhibition
Settings: spheroids with HUVEC and MSC; for IC50: curve of first compound; for viability, T/C: stronger effect = lower value
Excerpt: Multicellular complex tumor spheroid response to DNA repair inhibitors in combination with DNA-damaging drugs
This study explores the anticancer activities of DNA-damaging drugs and inhibitors of DNA damage repair, both as single agents and in combinations. Complex tumor spheroids comprised of malignant cells, endothelial cells and mesenchymal stem cells served as an in vitro model for human solid tumors. This model system incorporates physiologically relevant features and patient-derived or established malignant cell lines with clinically relevant genetic alterations from many tumor types. Twenty-six patient-derived or established malignant cell lines were evaluated representing sarcoma, melanoma, small cell lung cancer (SCLC), non-small cell lung cancer (NSCLC), as well as bladder, ovarian and pancreatic cancers. The concentration ranges selected for each drug and investigational agent were based upon clinically achievable concentrations if the clinical Cmax of the agent was known.
Compounds. The drugs and compounds olaparib (NSC753686), talazoparib (NSC767125), berzosertib (NSC777718), elimusertib (NSC800525), nedisertib (NSC802822), VX-984 (NSC792969), AZD-1390 (NSC803789), temozolomide (NSC362856), topotecan (NSC609699), trabectedin (NSC813783), staurosporine (NSC755774), and gemcitabine (NSC613327) were obtained from the National Cancer Institute (NCI) Developmental Therapeutics Program Chemical Repository. The FDA-approved anticancer drug set is available from the Developmental Therapeutics Program at https://dtp.cancer.gov/organization/dscb/obtaining/available_plates.htm. […] The stock solutions were prepared in dimethyl sulfoxide (DMSO, Sigma-Aldrich, St. Louis, MO, cat. D2650) at 400-fold the tested concentration and stored at -70 degrees C. Prior to their use, the stock solutions were diluted in fresh medium and the final DMSO concentration in the assay was 0.25% (v/v). All drugs and investigational agents were tested over a range starting from a high concentration at or near the clinical Cmax and decreasing in half-log increments. If the clinical Cmax for an agent had not been determined, the highest concentration tested was 10 microM.
Cell Lines. The patient-derived cancer cell (PDC) lines: 156681-154-R-J1-PDC, 283228-195-R-J1-PDC, 287954-098-R-J1-PDC, 292921-168-R-J2-PDC, 349418-098-R-PDC, 425362-245-T-J1-PDC, 556581-035-R-J1-PDC, and BL0293-F563-PDC were received from the NCI Patient-Derived Models Repository (PDMR, https://pdmr.cancer.gov). The established cell lines HS-SY-2 (RRID:CVCL_8719), MPNST, and SYO-1 (RRID:CVCL_7146) were obtained from the Sloan Kettering Institute. The alveolar soft parts sarcoma cell line ASPS-1 (RRID:CVCL_S738) was established at the NCI and grown from internal seed stocks. The following established cell lines were purchased from the American Type Culture Collection (ATCC, Manassas, VA): G-401 (ATCC, cat. CRL-1441, RRID:CVCL_0270), SW982 (ATCC, cat. HTB-93, RRID:CVCL_1734), VA-ES-BJ (ATCC, cat. CRL-2138, RRID:CVCL_1785), NCI-H719 (ATCC, cat. CRL-5837, RRID:CVCL_1582), NCI-H196 (ATCC, cat. CRL-5823, RRID:CVCL_1509), NCI-H841 (ATCC, cat. CRL-5845, RRID:CVCL_1595), NCI-H1618 (ATCC, cat. CRL-5879, RRID:CVCL_1480), NCI-H1876 (ATCC, cat. CRL-5902, RRID:CVCL_1503), DMS 114 (ATCC, cat. CRL-2066; RRID:CVCL_1174), NCI-H211 (ATCC, cat. CRL-5824; RRID:CVCL_1529), and SW 1271 (ATCC, cat. CRL-2177, RRID:CVCL_1716). The small cell lung cancer cell line COR-L88 was purchased from Sigma-Aldrich (cat. 92031917-1VL, RRID:CVCL_1141). The non-small cell lung cancer cell lines NCI-H226 (RRID:CVCL_1544) and NCI-H322M (RRID:CVCL_1557) were established at the NCI and grown from internal seed stocks. Pooled donor human umbilical vein endothelial cells (HUVEC, Lonza, cat. CC-2519) and human mesenchymal stem cells (hMSC, Lonza, cat. PT-2501) were purchased from Lonza (Walkersville, MD).
Cell Culture. All cells were maintained in an incubator at 37 degrees C and 5% CO2 with 95% humidity. […]
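Further: spheroids exposed to compound for 7 days before measurement.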
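Wherever viability, T/C is given: percent of vehicle control viability with 100% = DMSO-treated spheroids.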

SMILES: CC(C)n1c(=O)n(C)c2cnc3cc(F)c(-c4ccc(OCCCN5CCCCC5)nc4)cc3c21 + COc1cc2c(cc1O)CCNC21CSC2c3c(OC(C)=O)c(C)c4c(c3C(COC1=O)N1C(O)C3Cc5cc(C)c(OC)c(O)c5C(C21)N3C)OCO4
- IC50 (second compound 30 pM): > 10 µM
- IC50 (second compound 94.9 pM): > 10 µM
- IC50 (second compound 0.0003 µM): < 0.0316 µM
- IC50 (second compound 0.000949 µM): < 0.0316 µM
- IC50 (second compound 0.003 µM): < 0.0316 µM
- viability, T/C (second compound 30 pM, first compound 0.0316 µM): 91.8%
- viability, T/C (second compound 30 pM, first compound 0.1 µM): 97.4%
- viability, T/C (second compound 30 pM, first compound 0.316 µM): 106%
- viability, T/C (second compound 30 pM, first compound 1 µM): 99.6%
- viability, T/C (second compound 30 pM, first compound 3.16 µM): 98.4%
- viability, T/C (second compound 30 pM, first compound 10 µM): 77.7%
- viability, T/C (second compound 94.9 pM, first compound 0.0316 µM): 91.5%
- viability, T/C (second compound 94.9 pM, first compound 0.1 µM): 85%
- viability, T/C (second compound 94.9 pM, first compound 0.316 µM): 93%
- viability, T/C (second compound 94.9 pM, first compound 1 µM): 92.7%
- viability, T/C (second compound 94.9 pM, first compound 3.16 µM): 94.6%
- viability, T/C (second compound 94.9 pM, first compound 10 µM): 60.2%
- viability, T/C (second compound 0.0003 µM, first compound 0.0316 µM): 40.2%
- viability, T/C (second compound 0.0003 µM, first compound 0.1 µM): 37%
- viability, T/C (second compound 0.0003 µM, first compound 0.316 µM): 31.7%
- viability, T/C (second compound 0.0003 µM, first compound 1 µM): 32.1%
- viability, T/C (second compound 0.0003 µM, first compound 3.16 µM): 45.2%
- viability, T/C (second compound 0.0003 µM, first compound 10 µM): 22.1%
- viability, T/C (second compound 0.000949 µM, first compound 0.0316 µM): 0.4%
- viability, T/C (second compound 0.000949 µM, first compound 0.1 µM): 0.3%
- viability, T/C (second compound 0.000949 µM, first compound 0.316 µM): 0.49%
- viability, T/C (second compound 0.000949 µM, first compound 1 µM): 1.21%
- viability, T/C (second compound 0.000949 µM, first compound 3.16 µM): 1.2%
- viability, T/C (second compound 0.000949 µM, first compound 10 µM): 0.62%
- viability, T/C (second compound 0.003 µM, first compound 0.0316 µM): 1.38%
- viability, T/C (second compound 0.003 µM, first compound 0.1 µM): 1.4%
- viability, T/C (second compound 0.003 µM, first compound 0.316 µM): 1.38%
- viability, T/C (second compound 0.003 µM, first compound 1 µM): 1.37%
- viability, T/C (second compound 0.003 µM, first compound 3.16 µM): 1.41%
- viability, T/C (second compound 0.003 µM, first compound 10 µM): 1.51%

SMILES: Cc1cc(C)c(CNC(=O)c2cc(-c3ccc(CN4CCOCC4)cc3)cc3c2cnn3C2CCCC2)c(=O)[nH]1 + Cn1nnc2c(C(N)=O)ncn2c1=O
- IC50 (second compound 1 µM): 6.56 µM
- IC50 (second compound 3.16 µM): 7.44 µM
- IC50 (second compound 10 µM): 7.58 µM
- IC50 (second compound 31.6 µM): 6.24 µM
- IC50 (second compound 100 µM): 6.24 µM
- viability, T/C (second compound 1 µM, first compound 0.0316 µM): 98%
- viability, T/C (second compound 1 µM, first compound 0.1 µM): 97.6%
- viability, T/C (second compound 1 µM, first compound 0.316 µM): 103%
- viability, T/C (second compound 1 µM, first compound 1 µM): 97.1%
- viability, T/C (second compound 1 µM, first compound 3.16 µM): 91.6%
- viability, T/C (second compound 1 µM, first compound 10 µM): 25.8%
- viability, T/C (second compound 3.16 µM, first compound 0.0316 µM): 104%
- viability, T/C (second compound 3.16 µM, first compound 0.1 µM): 102%
- viability, T/C (second compound 3.16 µM, first compound 0.316 µM): 103%
- viability, T/C (second compound 3.16 µM, first compound 1 µM): 104%
- viability, T/C (second compound 3.16 µM, first compound 3.16 µM): 92.6%
- viability, T/C (second compound 3.16 µM, first compound 10 µM): 35.2%
- viability, T/C (second compound 10 µM, first compound 0.0316 µM): 97.4%
- viability, T/C (second compound 10 µM, first compound 0.1 µM): 106%
- viability, T/C (second compound 10 µM, first compound 0.316 µM): 98.7%
- viability, T/C (second compound 10 µM, first compound 1 µM): 102%
- viability, T/C (second compound 10 µM, first compound 3.16 µM): 94.3%
- viability, T/C (second compound 10 µM, first compound 10 µM): 35.8%
- viability, T/C (second compound 31.6 µM, first compound 0.0316 µM): 99.2%
- viability, T/C (second compound 31.6 µM, first compound 0.1 µM): 104%
- viability, T/C (second compound 31.6 µM, first compound 0.316 µM): 99.2%
- viability, T/C (second compound 31.6 µM, first compound 1 µM): 105%
- viability, T/C (second compound 31.6 µM, first compound 3.16 µM): 91.6%
- viability, T/C (second compound 31.6 µM, first compound 10 µM): 20.5%
- viability, T/C (second compound 100 µM, first compound 0.0316 µM): 104%
- viability, T/C (second compound 100 µM, first compound 0.1 µM): 105%
- viability, T/C (second compound 100 µM, first compound 0.316 µM): 103%
- viability, T/C (second compound 100 µM, first compound 1 µM): 97.2%
- viability, T/C (second compound 100 µM, first compound 3.16 µM): 91.6%
- viability, T/C (second compound 100 µM, first compound 10 µM): 21.5%
